Laboratory results reported in patent US10485235B2, “Aryloxypyrimidinyl ethers as herbicides” (FMC Corporation, priority 2015, dated 2019).

Tests used:
[1] = system: ryegrass, Italian (Italian ryegrass, Lolium multiflorum); assay: Test A preemergence, Italian ryegrass; type: in vivo; conditions: Lolium multiflorum, pre-emergence, 240 h, Preemergence, 0 to 100 scale (0 no effect, 100 complete control), read-out: Plant response rating, Ryegrass, Italian; for pest or weed control at 31 g/ha: 31 g ai/ha; for pest or weed control at 125 g/ha: 125 g ai/ha; for pest or weed control at 500 g/ha: 500 g ai/ha
In short: (§1)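 Compounds, formulated in a surfactant-containing solvent mixture that is non-phytotoxic, are sprayed onto soil after seeding (preemergence) or onto young plants, one to two leaves and 2 to 10 cm high (postemergence). Response is scored visually after around 10 days, where 0 means no effect and 100 means complete control.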

[2] = system: foxtail, giant (giant foxtail, Setaria faberii); assay: Test A preemergence, giant foxtail; type: in vivo; conditions: Setaria faberi, pre-emergence, 240 h, Preemergence, 0 to 100 scale (0 no effect, 100 complete control), read-out: Plant response rating, Foxtail, Giant; for pest or weed control at 31 g/ha: 31 g ai/ha; for pest or weed control at 125 g/ha: 125 g ai/ha; for pest or weed control at 500 g/ha: 500 g ai/ha
In short: as §1

[3] = system: pigweed (Amaranthus retroflexus); assay: Test A postemergence, pigweed; type: in vivo; conditions: Amaranthus retroflexus, post-emergence, 240 h, postemergence, 0 to 100 scale, 0 is no effect, 100 is complete control, approximately 10 days, read-out: Plant response rating, Pigweed; for pest or weed control at 31 g/ha: 31 g ai/ha; for pest or weed control at 125 g/ha: 125 g ai/ha; for pest or weed control at 500 g/ha: 500 g ai/ha
In short: as §1

[4] = system: ragweed (common ragweed, Ambrosia elatior); assay: Test A postemergence, ragweed; type: in vivo; conditions: Ambrosia artemisiifolia, post-emergence, 240 h, postemergence, 0 to 100 scale, 0 is no effect, 100 is complete control, approximately 10 days, read-out: Plant response rating, Ragweed; for pest or weed control at 31 g/ha: 31 g ai/ha; for pest or weed control at 125 g/ha: 125 g ai/ha; for pest or weed control at 500 g/ha: 500 g ai/ha
In short: as §1

[5] = system: barnyardgrass (Echinochloa crus-galli); assay: Test B flooded paddy test, barnyardgrass; type: in vivo; conditions: Echinochloa crus-galli; 250 g ai/ha, Flood; visual rating after 13 to 15 days; scale 0 to 100, 0 is no effect, 100 is complete control; read-out: Plant response rating, Barnyardgrass
In short: (§2)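 Visual injury scored 0 (no effect) to 100 (complete control) relative to controls 13-15 days after treatment in greenhouse. Treatment: test compound added into paddy water of pots flooded 3 cm over soil, holding 2-leaf-stage plants; water level kept constant.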

rice (Oryza sativa) = assay: Test B flooded paddy test, rice; type: in vivo; conditions: Oryza sativa; 250 g ai/ha, Flood; visual rating after 13 to 15 days; scale 0 to 100, 0 is no effect, 100 is complete control; read-out: Plant response rating, Rice
In short: as §2

melting point [°C]	Compound	pest or weed control at 31 g/ha [1] [%]	pest or weed control at 125 g/ha [1] [%]	pest or weed control at 31 g/ha [2] [%]	pest or weed control at 125 g/ha [2] [%]	pest or weed control at 31 g/ha [3] [%]	pest or weed control at 125 g/ha [3] [%]	pest or weed control at 31 g/ha [4] [%]	pest or weed control at 125 g/ha [4] [%]	pest or weed control at 250 g/ha [5] [%]	plant injury at 250 g/ha (rice (Oryza sativa)) [%]	pest or weed control at 500 g/ha [1] [%]	pest or weed control at 500 g/ha [2] [%]	pest or weed control at 500 g/ha [3] [%]	pest or weed control at 500 g/ha [4] [%]
	N#Cc1cccc(Oc2ncc(Cl)cn2)c1OCC(F)(F)F [Compound 1]	0	10	60	100	60	90	10	10						
102 to 106	N#Cc1cccc(Oc2ncc(Cl)cn2)c1OC/C=C/C(F)(F)F [Compound 8, 3-[(5-chloro-2-pyrimidinyl)oxy]-2-[[(2E)-4,4,4-trifluoro-2-buten-1-yl]oxy]benzonitrile]	0	30	100	100	90	100	0	10	0	0				
	N#Cc1cccc(Oc2ncc(Cl)cn2)c1OCC(F)(F)C(F)(F)F [Compound 10, 3-[(5-chloro-2-pyrimidinyl)oxy]-2-(2,2,3,3,3-pentafluoropropoxy)benzonitrile]		40		100		100		0	50	20	100	100	100	50
	CCCCOc1c(Br)cccc1Oc1ncc(Cl)cn1 [Compound 13, 2-[3-bromo-2-(butoxy)phenoxy]-5-chloropyrimidine]		10		100		100		0	0	20	90	100	100	10
	FC(F)C(F)(F)COc1c(Br)cccc1Oc1ncc(Cl)cn1 [Compound 18, 2-[3-bromo-2-(2,2,3,3-tetrafluoropropoxy)phenoxy]-5-chloropyrimidine]		10		100		100		0	0	0	100	100	100	20
	N#Cc1cccc(Oc2ncc(Cl)cn2)c1OCCC(F)(F)F [Compound 23, 3-[(5-chloro-2-pyrimidinyl)oxy]-2-(3,3,3-trifluoropropoxy)benzonitrile]	0	30	90	100	100	100	0	30	50	30				
	Fc1cccc(Oc2ncc(Cl)cn2)c1OCC(F)(F)F [Compound 28]		0		0		30		0	0	0	20	70	70	0
	CCCCOc1c(C#N)cccc1Oc1ncc(Cl)cn1 [Compound 35, 2-butoxy-3-[(5-chloro-2-pyrimidinyl)oxy]benzonitrile]		30		100		90		10	30	0	90	100	100	20
58 to 63	N#Cc1cccc(Oc2ncc(F)cn2)c1OCC(F)(F)F [Compound 41]	0	10	20	80	30	70	10	10						
	FC(F)(F)COc1c(Cl)cccc1Oc1ncc(Cl)cn1 [Compound 42]	0	0	0	10	20	60	0	0	0	0				
	Cc1cccc(Oc2ncc(Cl)cn2)c1OCC(F)(F)F [Compound 63]	0	0	0	0	0	0	0	0	0	0				
87 to 90	FC(F)(F)COc1c(I)cccc1Oc1ncc(Cl)cn1 [Compound 65]	0	10	30	100	70	100	0	0	20	0				

Compound	melting point [°C]	pest or weed control at 31 g/ha [1] [%]	pest or weed control at 125 g/ha [1] [%]	pest or weed control at 31 g/ha [2] [%]	pest or weed control at 125 g/ha [2] [%]	pest or weed control at 31 g/ha [3] [%]	pest or weed control at 125 g/ha [3] [%]	pest or weed control at 31 g/ha [4] [%]	pest or weed control at 125 g/ha [4] [%]	pest or weed control at 250 g/ha [5] [%]	plant injury at 250 g/ha (rice (Oryza sativa)) [%]	pest or weed control at 500 g/ha [1] [%]	pest or weed control at 500 g/ha [2] [%]	pest or weed control at 500 g/ha [3] [%]	pest or weed control at 500 g/ha [4] [%]
N#Cc1cccc(Oc2ncc(F)cn2)c1OCCCC(F)(F)F [Compound 4, 3-[(5-fluoro-2-pyrimidinyl)oxy]-2-(4,4,4-trifluorobutoxy)benzonitrile]	70 to 74	10	60	100	100	100	100	0	20	50	30				
N#Cc1cccc(Oc2ncc(Cl)cn2)c1OCCCC(F)(F)F [Compound 5, 3-[(5-chloro-2-pyrimidinyl)oxy]-2-(4,4,4-trifluorobutoxy)benzonitrile]	51 to 54	20	60	100	100	100	100	10	30	50	40				
